Laboratory results from patent US8563261B2, “Method of diagnosing and treating interstitial cystitis” (The Trustees of the University of Pennsylvania, priority 2009, dated 2013).
Entries after “also recorded” stand apart in the source; their conditions may differ.

Legend:
[1] = test system: human primary urothelial cells; test: growth of cultured human primary urothelial cells (proliferation assay); assay type: cell-based; conditions: 20 μM ET-1
Excerpt: Control cultures receive only the vehicle.

[2] = test system: cultured urothelial cells; test: Click-iT EdU assay of newly synthesized DNA; assay type: cell-based; conditions: ET-1 10 nM (25 ng/ml) vs control
Excerpt: Click-iT EdU assay (Invitrogen) was used to detect and quantify newly synthesized DNA. […] In Click-iT assay, EdU can be detected by green fluorescent dye and nuclei can be detected by blue fluorescent dye. Using fluorescent microplate reader (Synergy2, BioTek) both green and blue fluorescent signal were detected and quantified as shown in the bar graph of FIG. 3).

[3] = test system: rabbit primary urothelial cells; conditions: ET-1 at 20 μM
Method: Briefly, explanted epithelial cells propagated from fresh biopsy specimens are grown in DMEM-F12 with 10% heat-inactivated fetal bovine serum, 1% antibiotic/antimycotic, 1% L-glutamine, 1.0 unit/ml insulin (all from Sigma), and 5 μg/ml human epidermal growth factor at 37° C. in a humidified atmosphere of 5% CO2 and 95% air. […] Cell proliferation is assessed also by ^3H-thymidine incorporation and by cell counting using a haemocytometer. ET-1 samples are diluted at varying concentrations in serum-free MEM (containing only glutamine and antibiotics) and applied to cells. Control cultures receive only the vehicle. Cells are fed with serum-free medium for the proliferation assay.
Cultures are exposed to 1 μCi per well ^3H-thymidine (1 Ci=37 GiBg) for 4 hrs and trypsinized, sedimented by brief centrifugation (3,000 rpm for 10 min) and the cell pellets are washed with a buffer containing cold thymidine and the radioactivity determined using a scintillation counter. The ^3H-thymidine incorporation is expressed as a mean decrease in cpm of >2 SD from the mean of control cells for each plate. […] After developing the autoradiographs in D-19 (15° C.) and fixation, culture plates are stained with H &E. Cultures are examined under a light microscope and the number of cells showing silver grains in the nuclei from 10 selected fields on the culture plate are counted. […]

Structure (SMILES): CC[C@H](C)[C@H](NC(=O)[C@H](CC(=O)O)NC(=O)[C@H](CC(C)C)NC(=O)[C@H](Cc1c[nH]cn1)NC(=O)[C@@H]1CSSC[C@H](N)C(=O)N[C@@H](CO)C(=O)N[C@H]2CSSC[C@H](NC(=O)[C@H](CCC(=O)O)NC(=O)[C@H](CCCCN)NC(=O)[C@H](CC(=O)O)NC(=O)[C@H](CCSC)NC(=O)[C@H](CC(C)C)NC(=O)[C@H](CO)NC(=O)[C@H](CO)NC2=O)C(=O)N[C@@H](C(C)C)C(=O)N[C@@H](Cc2ccc(O)cc2)C(=O)N[C@@H](Cc2ccccc2)C(=O)N1)C(=O)N[C@H](C(=O)N[C@@H](Cc1c[nH]c2ccccc12)C(=O)O)[C@@H](C)CC [ET-1, Endothelin-1]
- effect on cell growth of cultured human urothelial cells [1]: inhibited; also recorded: inhibition
- EdU staining (newly synthesized DNA) in cultured urothelial cells [2]: significant decrease
- inhibition of growth of rabbit primary urothelial cells [3]: 30-40%
